{"source": "patent US9463254B2", "about": "“Molecular design toward dual-modality probes for radioisotope-based imaging (PET or SPECT) and MRI” (Board of Regents, The University of Texas System, priority 2013, dated 2016)", "key": {"[1]": {"conditions": "et al., cited from earlier work; for thermodynamic stability logK: Caravan, 1999"}, "[2]": {"assay": "MRI imaging and relaxivity measurements at 7.0 T", "type": "physicochemical", "experimental": "The T1-weighted MR images of samples in 0.5 mL microfuge tubes were collected using Agilent®/Varian™ 7.0 T ([…], 5 cm diameter volume coil) VNMRj's spin-echo sequence (SEMS) sequence. For imaging, the following parameters were used: TR=200 ms; effective echo time (TE)=11.5 ms; FOV 45×45 mm^2, data matrix=256×256, averaging=2, slice=1 mm, steady-state scans=5, single slice. The T1-maps of the samples at […] was determined from a series of multi-TR (0.005 s to 10 s) saturation-recovery spin-echo sequence (SEMS with minimum TE (11.5 ms); FOV 45×45 mm^2; matrix=128×128; averaging=5, steady state scans=5), fitted and calculated using the ImageJ software. All the fits for T1 values used to calculate the longitudinal relaxivity, r1, had fitting coefficients, R^2≧0.99. Three trials were performed. […] Such changes are well known that T1 relaxivity typically decreases with increasing field strength (Caravan, et al., 1999)."}, "[3]": {"conditions": "20 MHz, 39° C.; cited from earlier work"}, "[4]": {"assay": "Relaxivity measurements (T1 relaxivity, Maran Ultra relaxometer)", "type": "physicochemical", "conditions": "20 MHz, 25° C., Millipore water", "experimental": "The T1 values were recorded at […], 25° C. by using a Maran Ultra relaxometer (Oxford Instruments, UK). Longitudinal relaxation times were measured by using the inversion-recovery pulse sequence (180°-t-90°). The T1 relaxivities were determined by the linear regression analysis of the water proton relaxation rates in solutions ranging in concentration from 0.005 to 12 mM, in Millipore water in triplicate. At 20 MHz, 25° C., the relaxivity of Gd^3+-L was calculated to be 103.5±15 mM^−1 s^−1. Thus, each Gd in the complex accounts for relaxivity of 17.25 mM^−1 s^−1, while under the same conditions, the relaxivity of Gd(DOTA) complex is 3.5 mM^−1 s^−1. The relaxivity value of Gd^3+-L is approximately 400% higher than that of Gd(DOTA). This may be attributed to its higher molecular weight (larger size) and consequently longer rotational correlation time (tR). At ambient conditions (37° C.), the relaxivity value of Gd^3+-L remains unchanged. The measurement of the relaxivity value of Gd^3+-L in rat serum at 25° C. gives an enhanced relaxivity value of 145.5±9.2 mM^−1 s^−1."}}}
{"compound": "O=C([O-])CN1CCN(CC(=O)[O-])CCN(CC(=O)[O-])CC1.[Ga+3]", "note": "[Ga-NOTA]", "values": [{"measurement": "thermodynamic stability logK", "setting": "[1]", "value": 31.0}]}
{"compound": "O=C([O-])CN(CCN(CC(=O)[O-])CC(=O)O)CCN(CC(=O)[O-])CC(=O)O.[Gd+3]", "note": "[Gd-DTPA]", "values": [{"measurement": "Log K compared with that of Gd-NOTA complex", "setting": "[1]; Reichert, 1996", "value": "about eight orders of magnitude higher"}]}
{"compound": "O=C([O-])CN1CCN(CC(=O)[O-])CCN(CC(=O)[O-])CC1.[Gd+3]", "note": "[Gd-NOTA]", "values": [{"measurement": "thermodynamic stability logK", "setting": "[1]", "value": 14.3}]}
{"compound": "CNC[C@H](O)[C@@H](O)[C@H](O)[C@H](O)CO.CNC[C@H](O)[C@@H](O)[C@H](O)[C@H](O)CO.O=C([O-])CN(CCN(CC(=O)[O-])CC(=O)O)CCN(CC(=O)[O-])CC(=O)O.[Gd+3]", "note": "[magnevist]", "values": [{"measurement": "r1 (longitudinal relaxivity) of the comparator", "setting": "[2]", "value": 4.1, "unit": "mM^−1 S^1"}]}
{"compound": "Gadomer-17", "values": [{"measurement": "ionic relaxivity", "setting": "[3]", "value": 17.3, "unit": "mM⁻¹ s⁻¹"}]}
{"compound": "gadolinium-1,4,7,10-tetrakis(carboxymethyl) cyclododecane [Gd(DOTA)]", "values": [{"measurement": "relaxivity", "setting": "[4]", "value": 3.5, "unit": "mM⁻¹ s⁻¹"}, {"measurement": "thermodynamic stability logK", "setting": "[1]", "value": 24.7}]}
